The source of these data is US20200397894A1, “COMPOSITIONS AND METHODS FOR TREATING CANCER” (University of Virginia Patent Foundation, priority 2016, published 2020).

What all share (format): cell-based, human
One assay relates to DM331 cells. Description: Rereplication by propidium iodide staining and FACS. To be noted: DM331, 1 μM pevonedistat. Here is the method: (§1) The effects of pevonedistat, vemurafenib, and/or silencing of various cell cycle-associated proteins by siRNA on cell cycle distribution and rereplication were assessed by propidium iodide staining and flow cytometry of asynchronous melanoma cultures. Synchronization of cells was not employed to avoid bias and to be able to measure the impact of these perturbations on proliferating cancer cells. Briefly, asynchronous melanoma cell lines were treated with pevonedistat or vemurafenib, or transfected with si-CDT1, si-CDT2, si-SET8, si-p21, sigeminin, si-EMI1, or si-GL2 for a time ranging from 24 to 96 hours. Cells were washed with cold PBS, harvested, and fixed in 70% (v/v) ethanol. Cells were subsequently treated with 20 μg of DNase-free RNase and stained with propidium iodide according to instructions of the manufacturer. Samples were analyzed on a FACSCAN™ (Becton, Dickinson and Company, Franklin Lakes, N.J., United States of America) and G0-G1, S, and G2-M fractions were segmented, and apoptotic (sub-G1 DNA content) and rereplicating (>G2/M DNA content) fractions were determined using FLOWJO® (FLOWJO, LLC, Ashland, Oreg., United States of America) and ModFit (Verity Software House, Topsham, Me., United States of America) software.

The next assay concerns SK-MEL-28 cells. The description is as above. To be noted: SK-MEL-28, 1 μM pevonedistat. As for the experimental part:
as §1

Another assay has as its system SLM2 melanoma cells. Described as above. As for the experimental part: as §1
The test system of the next assay is VMM18 cells. The assay is described as above. To be noted: VMM18, 1 μM pevonedistat. Here is the method:
as §1

In a further assay the test system is VMM39 cells. The assay is described as above. The following applies: VMM39, 1 μM pevonedistat. As for the experimental part:
as §1

Another assay relates to Cal27 or FaDu cells. Description: FACS analysis of HNSCC cells (line not given). As for the experimental part:
The effect of pevonedistat treatment or CDT2, geminin, or EMI1 knockdown on the cell cycle (and induction of DNA rereplication) was assessed by flow cytometry with propidium iodide (PI) staining. […] Cells were collected, washed with PBS, and resuspended in ethanol (75%). Cells were subsequently treated with 20 μg of DNase-free RNase and stained with PI following the manufacturer's protocol. FACSCAN™ (Becton, Dickinson and Company, Franklin Lakes, N.J., United States of America) was used to analyze the samples and G0-G1, S, and G2-M fractions were segmented. Subsequent analysis using FLOWJO® (FLOWJO, LLC, Ashland, Oreg., United States of America) and ModFit (Verity Software House, Topsham, Me., United States of America) software was used to determine apoptotic and re-replicating fractions. Where indicated, Cal27 and FaDu cells were treated with pevonedistat for 48 hours and pulsed with BrdU (10 nM) for 1 hour in the dark prior to harvesting. […] Sampled were analyzed on a FACSCAN™ (Becton, Dickinson and Company, Franklin Lakes, N.J., United States of America), and different fractions of BrdU positive cells were determined using FLOWJO® (FLOWJO, LLC, Ashland, Oreg., United States of America) and ModFit (Verity Software House, Topsham, Me., United States of America) software.
A general note: A flow cytometer gives signals particle by particle.

For a further assay, the system named is DM93 cells. The experiment in a line: Senescence-associated β-galactosidase assay. To be noted: DM93, pevonedistat, as early as 48 hours post-treatment. As for the experimental part: Senescence was monitored using β-galactosidase (β-gal) staining. Following the various treatments, cells were washed twice with PBS, fixed with 2% formaldehyde/0.2% gluteraldehyde in PBS for 15 minutes at room temperature, and washed twice with PBS. The cells were stained with fresh X-Gal solution (1 mg/ml X-gal, 40 mM C6H8O7.H2O, 5 mM K3Fe(CN)6, 5 mM K4Fe(CN)6.3H2O, 150 mM NaCl, and 2 mM MgCl2.6H2O in PBS) for 3-12 hours at 37° C. in the dark. Cells were washed three times in PBS and fixed with 100% methanol for 5 minutes at room temperature. Bright field blue color images were taken with an AMG EVOS® XL Core Imager/camera microscope (Life Technologies, Inc., Carlsbad, Calif., United States of America) counting at least 100 cells from at least 3 fields.

The subject of assay [1] is cullin ubiquitylation substrates (CDT2, CDT1, p21, p27) in DM93 cells. The experiment in a line: Immunoblotting of cullin ubiquitylation substrates. The following applies: DM93, increasing doses for 24 hours; significant levels at 1 μM. As for the experimental part: Melanoma cells were lysed with RIPA lysis buffer (50 mM Tris, pH 8.0; 150 mM NaCl, 1% NP-40; 0.5% sodium deoxycholate; 0.1% SDS; 1 mM Benzamidine-HCl; 0.5 μg/ml Leupeptin; 0.5 μg/ml Aprotinin; 1 μg/ml pepstatin; 20 mM NaF; 20 mM Na3VO4), and equal amounts of protein were electrophoretically separated in a polyacrylamide 8-12% gel (Bio-Rad Laboratories, Inc., Hercules, Calif., United States of America), trans-blotted to a nitrocellulose membrane, and incubated overnight with primary antibodies at 4° C. The following antibodies were used: Anti-p21 (C19), anti-p27 (C19), anti-p53 (DO-1), and anti-tubulin (10D8) were purchased from Santa Cruz Biotechnology, Inc. (California, United States of America). Antibodies against SET8, CHK1, CHK2, p-CHK1 (S375), p-CHK2 (T68), H2AX and p-H2AX (γH2AX; T139), and PARP were purchased from Cell Signaling Technology, Inc. (Danvers, Mass., United States of America). Anti-Cul3 was purchased from Bethyl Laboratories (Montgomery, Tex., United States of America). Anti-CDT1 and anti-CDT2 antibodies were described before (Abbas et al., 2010). The immunoblot signals were detected by enhanced chemiluminescence. For murine melanoma xenografts, tumors were isolated, washed three times with cold PBS, and frozen at −80° C. until use. […]

With `NS(=O)(=O)OCC1CC(n2ccc3c(NC4CCc5ccccc54)ncnc32)CC1O` [pevonedistat, ((1S,2S,4R)-4-(4-((1S)-2,3-Dihydro-H-inden-1-ylamino)-7H-pyrrolo(2,3-d)pyrimidin-7-yl)-2-hydroxycyclopentyl)methyl sulphamate], the “Percent of Cells in S and G2/M at 24 hours” value is on record as 47.8% with DM331 cells (24 hours); 38.7% in the assay with SK-MEL-28 cells (24 hours); 46.8% in the assay with SLM2 melanoma cells (SLM2, 1 μM pevonedistat, 24 hours); 7.83% in the assay on VMM18 cells (24 hours); 37.9% with VMM39 cells (24 hours). The “Percent of Cells in S and G2/M at 72 Hours” value with DM331 cells (72 hours) stood at 63.2%; in the assay with SK-MEL-28 cells (72 hours), 55.9%; with SLM2 melanoma cells (SLM2, 1 μM pevonedistat, 72 hours), 50.2%; in the assay on VMM18 cells (72 hours) it was 16.9%; in the assay on VMM39 cells (72 hours), 33.8%. The cells with rereplication result in the assay with SLM2 melanoma cells (SLM2, 72 hours post-treatment) was “more than 58%”. Also, the “cells exhibiting sub-G1 DNA content” value in the assay on Cal27 or FaDu cells (72 hours post-treatment) was 5-10%. Besides, the “concentration at which rereplication was also observed” value with Cal27 or FaDu cells (as early as 24 hours following treatment) stood at 40 nM. Further, the senescence entry in the assay on DM93 cells is listed as “majority of cells underwent senescence”. For the same compound, the “cullin ubiquitylation substrates CDT2, CDT1, p21 and p27” value in assay [1] is listed as “dose-dependent increase”.
